Test results as given in PubChem BioAssay (NCI).
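These data come from cells grown in 96-well plates and exposed to compound for 48 hours at five concentrations. TGI: total growth inhibition.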

Legend:
Assay in all cases: DTP human tumour cell line panel, 48 h
SF-268 CNS = system: SF-268 CNS
MALME-3M melanoma = system: MALME-3M melanoma
K-562 leukemia = system: K-562 leukemia
M14 melanoma = system: M14 melanoma
SK-MEL-5 melanoma = system: SK-MEL-5 melanoma
HOP-92 NSCLC = system: HOP-92 NSCLC
SK-OV-3 ovarian = system: SK-OV-3 ovarian
EKVX NSCLC = system: EKVX NSCLC
ACHN renal = system: ACHN renal
CCRF-CEM leukemia = system: CCRF-CEM leukemia
TK-10 renal = system: TK-10 renal
SN12C renal = system: SN12C renal
NCI-H23 lung = system: NCI-H23 lung
786-0 renal = system: 786-0 renal
HCT-15 colon = system: HCT-15 colon
HS 578T breast = system: HS 578T breast
MDA-N = system: MDA-N
UACC-62 melanoma = system: UACC-62 melanoma
MCF7 breast = system: MCF7 breast
SK-MEL-28 melanoma = system: SK-MEL-28 melanoma
SNB-19 CNS = system: SNB-19 CNS
OVCAR-3 ovarian = system: OVCAR-3 ovarian
DU-145 prostate = system: DU-145 prostate
A498 renal = system: A498 renal
CAKI-1 renal = system: CAKI-1 renal
OVCAR-4 ovarian = system: OVCAR-4 ovarian
NCI-H226 lung = system: NCI-H226 lung
MDA-MB-435 = system: MDA-MB-435
KM12 colon = system: KM12 colon
HT29 colon = system: HT29 colon
SK-MEL-2 melanoma = system: SK-MEL-2 melanoma
LOX IMVI melanoma = system: LOX IMVI melanoma
OVCAR-5 ovarian = system: OVCAR-5 ovarian
NCI/ADR-RES ovarian = system: NCI/ADR-RES ovarian
SF-295 CNS = system: SF-295 CNS
MDA-MB-231 breast = system: MDA-MB-231 breast
SR leukemia = system: SR leukemia
IGROV1 ovarian = system: IGROV1 ovarian
UACC-257 melanoma = system: UACC-257 melanoma
HCT-116 colon = system: HCT-116 colon
PC-3 prostate = system: PC-3 prostate
SNB-75 CNS = system: SNB-75 CNS
RPMI-8226 leukemia = system: RPMI-8226 leukemia
HOP-62 NSCLC = system: HOP-62 NSCLC
COLO 205 colon = system: COLO 205 colon
HL-60(TB) leukemia = system: HL-60(TB) leukemia
MOLT-4 leukemia = system: MOLT-4 leukemia
U251 CNS = system: U251 CNS
SW-620 colon = system: SW-620 colon
HCC-2998 colon = system: HCC-2998 colon
OVCAR-8 ovarian = system: OVCAR-8 ovarian
SF-539 CNS = system: SF-539 CNS
A549 NSCLC = system: A549 NSCLC
NCI-H460 lung = system: NCI-H460 lung
BT-549 breast = system: BT-549 breast
RXF 393 renal = system: RXF 393 renal
NCI-H522 lung = system: NCI-H522 lung
UO-31 renal = system: UO-31 renal

`COc1ccccc1/C=C/c1ccnc2ccccc12` gave a TGI (SF-268 CNS) of 29.4 µM, a TGI (MALME-3M melanoma) of 24.8 µM and a TGI (K-562 leukemia) of 30.7 µM. For the same compound, the TGI (M14 melanoma) was 29.7 µM, the TGI (SK-MEL-5 melanoma) was 26.4 µM and the TGI (HOP-92 NSCLC) was 26.2 µM. The TGI (SK-OV-3 ovarian) was 29.7 µM, the TGI (EKVX NSCLC) was 23 µM and the TGI (ACHN renal) was 32.8 µM. For the same compound, the TGI (CCRF-CEM leukemia) was 34.8 µM, the TGI (TK-10 renal) was 30.9 µM and the TGI (SN12C renal) was 37.3 µM. The TGI (NCI-H23 lung) was 27.9 µM, the TGI (786-0 renal) was 27.7 µM and the TGI (HCT-15 colon) was 25 µM. It also gave a TGI (HS 578T breast) of 38.5 µM, a TGI (MDA-N) of 26.1 µM and a TGI (UACC-62 melanoma) of 24.5 µM. The TGI (MCF7 breast) was 17.5 µM, the TGI (SK-MEL-28 melanoma) was 31.1 µM and the TGI (SNB-19 CNS) was 28.2 µM. For the same compound, the TGI (OVCAR-3 ovarian) was 26.7 µM, the TGI (DU-145 prostate) was 30.8 µM and the TGI (A498 renal) was 29.5 µM. It also gave a TGI (CAKI-1 renal) of 40.3 µM, a TGI (OVCAR-4 ovarian) of 25.4 µM and a TGI (NCI-H226 lung) of 29.5 µM. The TGI (MDA-MB-435) was 19.9 µM, the TGI (KM12 colon) was 25.3 µM and the TGI (HT29 colon) was 25.4 µM. For the same compound, the TGI (SK-MEL-2 melanoma) was 30.1 µM, the TGI (LOX IMVI melanoma) was 36 µM and the TGI (OVCAR-5 ovarian) was 32.4 µM. It also gave a TGI (NCI/ADR-RES ovarian) of 32.4 µM, a TGI (SF-295 CNS) of 27.2 µM and a TGI (MDA-MB-231 breast) of 31.1 µM. For the same compound, the TGI (SR leukemia) was 35.7 µM, the TGI (IGROV1 ovarian) was 19.9 µM and the TGI (UACC-257 melanoma) was 29.5 µM. For the same compound, the TGI (HCT-116 colon) was 26.5 µM, the TGI (PC-3 prostate) was 27.3 µM and the TGI (SNB-75 CNS) was 17 µM. It also gave a TGI (RPMI-8226 leukemia) of 37.8 µM, a TGI (HOP-62 NSCLC) of 29.6 µM and a TGI (COLO 205 colon) of 33.2 µM. The TGI (HL-60(TB) leukemia) was 26 µM, the TGI (MOLT-4 leukemia) was 28 µM and the TGI (U251 CNS) was 24.2 µM. The TGI (SW-620 colon) was 26.9 µM, the TGI (HCC-2998 colon) was 31.3 µM and the TGI (OVCAR-8 ovarian) was 30.2 µM. For the same compound, the TGI (SF-539 CNS) was 27.8 µM, the TGI (A549 NSCLC) was 31 µM and the TGI (NCI-H460 lung) was 28.9 µM. It also gave a TGI (BT-549 breast) of 24.4 µM.

`CC(=O)c1nc2ccccc2n1C(C)C(=O)c1ccccc1` (stereo not drawn) was tested, and the TGI (SF-268 CNS) was over 100 µM, the TGI (MALME-3M melanoma) was over 100 µM and the TGI (K-562 leukemia) was over 100 µM. It also gave a TGI (M14 melanoma) of over 100 µM, a TGI (HOP-92 NSCLC) of over 100 µM and a TGI (SK-OV-3 ovarian) of over 100 µM. It also gave a TGI (EKVX NSCLC) of over 100 µM, a TGI (CCRF-CEM leukemia) of over 100 µM and a TGI (TK-10 renal) of over 100 µM. For the same compound, the TGI (SN12C renal) was over 100 µM, the TGI (NCI-H23 lung) was over 100 µM and the TGI (786-0 renal) was over 100 µM. It also gave a TGI (HCT-15 colon) of over 100 µM, a TGI (HS 578T breast) of over 100 µM and a TGI (MDA-N) of over 100 µM. The TGI (UACC-62 melanoma) was over 100 µM, the TGI (MCF7 breast) was over 100 µM and the TGI (SK-MEL-28 melanoma) was over 100 µM. The TGI (SNB-19 CNS) was over 100 µM, the TGI (OVCAR-3 ovarian) was over 100 µM and the TGI (RXF 393 renal) was over 100 µM. The TGI (DU-145 prostate) was over 100 µM, the TGI (A498 renal) was over 100 µM and the TGI (CAKI-1 renal) was over 100 µM. The TGI (OVCAR-4 ovarian) was over 100 µM, the TGI (NCI-H226 lung) was over 100 µM and the TGI (MDA-MB-435) was over 100 µM. The TGI (KM12 colon) was over 100 µM, the TGI (HT29 colon) was over 100 µM and the TGI (LOX IMVI melanoma) was over 100 µM. For the same compound, the TGI (NCI-H522 lung) was over 100 µM, the TGI (NCI/ADR-RES ovarian) was over 100 µM and the TGI (SF-295 CNS) was over 100 µM. It also gave a TGI (MDA-MB-231 breast) of over 100 µM, a TGI (SR leukemia) of over 100 µM and a TGI (IGROV1 ovarian) of over 100 µM. It also gave a TGI (UACC-257 melanoma) of over 100 µM, a TGI (HCT-116 colon) of over 100 µM and a TGI (PC-3 prostate) of over 100 µM. It also gave a TGI (SNB-75 CNS) of over 100 µM, a TGI (RPMI-8226 leukemia) of over 100 µM and a TGI (HOP-62 NSCLC) of over 100 µM. It also gave a TGI (COLO 205 colon) of over 100 µM, a TGI (HL-60(TB) leukemia) of over 100 µM and a TGI (MOLT-4 leukemia) of over 100 µM. The TGI (U251 CNS) was over 100 µM, the TGI (SW-620 colon) was over 100 µM and the TGI (OVCAR-8 ovarian) was over 100 µM. The TGI (SF-539 CNS) was over 100 µM, the TGI (A549 NSCLC) was over 100 µM and the TGI (UO-31 renal) was over 100 µM. It also gave a TGI (NCI-H460 lung) of over 100 µM and a TGI (BT-549 breast) of over 100 µM.
